Blank lines part the entries; values can stand above or below the compound they belong to.
Columns and labels:
[1] = tested on: MCF7; test: Anticancer activity against human MCF7 cells assessed as inhibition of cell growth; assay type: functional, cell-based
[2] = tested on: HepG2; test: Anticancer activity against human HepG2 cells assessed as inhibition of cell growth; assay type: functional, cell-based
[3] = tested on: P388; test: Anticancer activity against mouse P388 cells assessed as reduction in cell growth; assay type: functional, cell-based
[4] = tested on: MDA-MB-231; test: Anticancer activity against human MDA-MB-231 cells assessed as cell viability measured after 24 hrs by MTT assay; assay type: functional, cell-based; conditions: MDA-MB-231, 24 h
[5] = tested on: HeLa; test: Antiproliferative activity against human HeLa cells assessed as cell viability measured after 24 hrs by MTT assay; assay type: functional, cell-based
[6] = tested on: HCT-116; test: Antiproliferative activity against human HCT-116 cells assessed as cell viability measured after 24 hrs by MTT assay; assay type: functional, cell-based; conditions: HCT-116, 24 h
[7] = tested on: P388; test: Anticancer activity against mouse P388 cells assessed as inhibition of cell growth by dilution assay; assay type: functional, cell-based
[8] = tested on: A549; test: Anticancer activity against human A549 cells assessed as inhibition of cell growth by dilution assay; assay type: functional, cell-based
[9] = tested on: HT-29; test: Anticancer activity against human HT-29 cells assessed as inhibition of cell growth by dilution assay; assay type: functional, cell-based
[10] = tested on: P388; test: Anticancer activity against mouse P388 cells assessed as cell growth inhibition; assay type: functional, cell-based
[11] = tested on: A549; test: Anticancer activity against human A549 cells assessed as cell growth inhibition; assay type: functional, cell-based
[12] = tested on: HT-29; test: Anticancer activity against human HT-29 cells assessed as cell growth inhibition; assay type: functional, cell-based
[13] = tested on: SK-MEL-28; test: Anticancer activity against human MEL-28 cells assessed as cell growth inhibition; assay type: functional, cell-based
[14] = tested on: MDA-MB-231; test: Antiproliferative activity against human MDA-MB-231 cells assessed as cell growth inhibition incubated for 72 hrs by SRB assay; assay type: functional, cell-based; conditions: MDA-MB-231, 72 h
[15] = tested on: A549; test: Antiproliferative activity against human A549 cells assessed as cell growth inhibition incubated for 72 hrs by SRB assay; assay type: functional, cell-based; conditions: A549, 72 h
[16] = tested on: HT-29; test: Antiproliferative activity against human HT-29 cells assessed as cell growth inhibition incubated for 72 hrs by SRB assay; assay type: functional, cell-based; conditions: HT-29, 72 h
[17] = tested on: PC-3; test: Anticancer activity against human PC-3 cells assessed as inhibition of cell growth; assay type: functional, cell-based
[18] = tested on: MCF7; test: Anticancer activity against human MCF7 cells assessed as inhibition of cell growth by MTT assay; assay type: functional, cell-based
[19] = tested on: HCT-116; test: cells; conditions: Homo sapiens
Description: Anticancer activity against human HCT-116 cells assessed as inhibition of cell growth by MTT assay

[20] = tested on: HepG2; test: cells; conditions: Homo sapiens
Description: Anticancer activity against human HepG2 cells assessed as inhibition of cell growth by MTT assay

[21] = tested on: A549; test: Anticancer activity against human A549 cells assessed as inhibition of cell growth; assay type: functional, cell-based
[22] = tested on: KB 3-1; test: Anticancer activity against human KB 3-1 cells assessed as inhibition in cell growth; assay type: functional, cell-based
[23] = tested on: L5178Y; test: Anticancer activity against mouse L5178Y assessed as cell growth inhibition by [3H]-thymidine assay; assay type: functional, cell-based
[24] = tested on: L5178Y; test: Anticancer activity against mouse L5178Y assessed as cell growth inhibition by [3H]-thymidine assay relative to control; assay type: functional
[25] = tested on: BT-474; test: Anticancer activity against human BT-474 cells assessed as cell growth inhibition incubated for 48 hrs by MTT assay; assay type: functional, cell-based; conditions: BT-474, 48 h
[26] = tested on: P388; test: Anticancer activity against mouse P388 cells assessed as inhibition of cell growth; assay type: functional, cell-based
[27] = tested on: HT-29; test: Anticancer activity against human HT-29 cells assessed as inhibition of cell growth; assay type: functional, cell-based

IC50 [1]: 26800 nM
IC50 [2]: 24700 nM
SMILES: CCCCCCCCCCCCCCCCCCCCC[C@@H](O)[C@@H](O)[C@H](CO)NC(=O)[C@H](O)CCCCCCCCCCCCCCCC

IC50 [3]: 1.8 nM
SMILES: CC1=CCC[C@H]2[C@](C)(CC3=CC(=O)C=C(O)C3=O)[C@@H](C)CC[C@]12C

IC50 [4]: 13200 nM
IC50 [5]: 17600 nM
IC50 [6]: 7000 nM
SMILES: COC1=C(Br)C[C@@]2(OC=C1Br)ON=C(C(=O)NCCCOc1c(Br)cc(C(O)CNC(N)=O)cc1Br)[C@H]2O (stereo partly drawn)

IC50 [7]: 2.2 nM
IC50 [8]: 2.2 nM
IC50 [9]: > 2.2 nM
SMILES: CC(=O)OC[C@]1(C)CCC[C@]2(C)[C@H]3C[C@@H](O)[C@]4(C)C5=C(CC[C@H]4[C@]3(C)CC[C@@H]12)COC5=O

IC50 [7]: 2.2 nM
IC50 [8]: 2.2 nM
IC50 [9]: > 2.2 nM
SMILES: CC1(C)CCC[C@]2(C)[C@H]3C[C@@H](O)[C@]4(C)c5cocc5C(=O)C[C@H]4[C@]3(C)CC[C@@H]12 [SALMAHYRTISOL B]

IC50 [4]: 19400 nM
IC50 [5]: 22200 nM
IC50 [6]: 8200 nM
SMILES: COC1=C(Br)C[C@@]2(OC=C1Br)ON=C(C(=O)NCCCOc1c(Br)cc(CCNC(N)=O)cc1Br)[C@H]2O

IC50 [10]: 240 nM
IC50 [11]: 120 nM
IC50 [12]: 120 nM
IC50 [13]: 240 nM
SMILES: C=C1CCC[C@@H]2[C@@](C)(CC[C@@]3(C)CCn4cnc5ncnc(c54)N3O)[C@H](C)CC[C@]12C

IC50 [14]: 90000 nM
IC50 [15]: 100000 nM
IC50 [16]: 85000 nM
SMILES: COc1ccc2[nH]c3c(-c4c[nH]c5cc(O)ccc45)ncc(C(=O)O)c3c2c1

SMILES: CC1=C(CC/C(C)=C/CC[C@@]2(C)CC[C@H]([C@@H](C)C(=O)O)OO2)C(C)(C)CCC1
IC50 [11]: 3000 nM
IC50 [1]: 7000 nM
IC50 [17]: 8000 nM

IC50 [1]: > 200000 nM
IC50 [2]: 107000 nM
SMILES: CCCCCCCCCCCCC(=O)N[C@@H](CO)[C@H](O)[C@H](O)CCCCCCCCCC

IC50 [18]: 4 nM
IC50 [19]: 1.7 nM
IC50 [20]: 3.3 nM
SMILES: CC[C@@]1(C)CCC[C@]2(C)[C@H]3C[C@H](OC(C)=O)[C@]4(C)[C@H]5CO[C@](C)(O)C5CC[C@H]4[C@]3(C)CC[C@@H]12 (stereo partly drawn)

IC50 [21]: 8900 nM
IC50 [17]: 7900 nM
IC50 [22]: 4.8 nM
SMILES: CC1=CCC2C(CC[C@@]2(C)O)C(C)(C)[C@@H]1CC[C@H]1[C@@](C)(O)CCC2OC(C)(C)[C@H](O)CC[C@@]21C (stereo partly drawn)

SMILES: COC(=O)c1c[nH]c2ccc(O)cc12
IC50 [23]: 52 nM
inhibition (INH) [24]: 36%

IC50 [14]: 42000 nM
IC50 [15]: 35000 nM
IC50 [16]: 45000 nM
SMILES: NC(=O)c1cnc(-c2c[nH]c3cc(O)ccc23)c2[nH]c3ccc(O)cc3c12

SMILES: C/C1=C/C(=O)O[C@@H]2C[C@@H](CC[C@H](C)/C=C\CC1)O[C@@](O)([C@@H]1CSC(=O)N1)C2 [LATRUNCULIN B]
IC50 [2]: 19300 nM

IC50 [25]: 35600 nM
SMILES: [O-][N+]12CCC[C@]3(O)CCCCCC[C@@H]4CCN5CCC[C@](O)(CCCCCC[C@H](CC1)O[C@@H]32)[C@@H]5O4 (stereo partly drawn)

SMILES: C=C(CCC1=C(C)CCCC1(C)C)C(O)CC[C@@]1(C)CC[C@H]([C@@H](C)C(=O)O)OO1 (stereo partly drawn)
IC50 [21]: > 2.4 nM
IC50 [26]: > 2.4 nM
IC50 [27]: > 2.4 nM

IC50 [25]: 52500 nM
SMILES: C[C@@H]1CN2CCC[C@H]3CCCCCC[C@H]4CCN5CCC[C@@](O)(CCCCCC[C@@H]1O[C@H]32)[C@H]5O4 [XESTOSPONGIN B]

IC50 [25]: 29500 nM
SMILES: [O-][N+]12CCC[C@]3(O)CCCCCC[C@@H]4CCN5CCC[C@@H](CCCCCC[C@H](CC1)O[C@@H]32)[C@@H]5O4 (stereo partly drawn)

IC50 [18]: 4.8 nM
IC50 [19]: 1.3 nM
IC50 [20]: 2.9 nM
SMILES: CC[C@@]1(C)CCC[C@]2(C)[C@H]3C[C@H](OC(C)=O)[C@]4(C)C=C(C(C)=O)[C@H](OC(C)=O)C[C@H]4[C@]3(C)CC[C@@H]12

IC50 [7]: 2.2 nM
IC50 [8]: 2.2 nM
IC50 [9]: > 2.2 nM
SMILES: CC(=O)O[C@@H]1c2occc2[C@@H](O)C[C@H]2[C@]3(C)CC[C@H]4C(C)(C)CCC[C@]4(C)[C@H]3C[C@@]21C [SALMAHYRTISOL A]

SMILES: C=C(CCC[C@@]1(C)CC[C@H]([C@@H](C)C(=O)OC)OO1)CCC1(O)C(=C)CCCC1(C)C (stereo partly drawn)
IC50 [21]: > 2.4 nM
IC50 [26]: > 2.4 nM
IC50 [27]: > 2.4 nM

IC50 [18]: 1.3 nM
IC50 [19]: 1.7 nM
IC50 [20]: 4.7 nM
SMILES: CC(=O)O[C@H]1C[C@@H]2[C@@]3(C)CCCC(C)(C)[C@@H]3CC[C@@]2(C)[C@@H]2CC=C(C(C)=O)[C@@H]3[C@@H](O)C[C@@]132

IC50 [3]: 3.6 nM
SMILES: CC1=CCC[C@H]2[C@](C)(CC3=C(O)C(=O)C=C(O)C3=O)[C@@H](C)CC[C@]12C
